Reference: publication PMC8808565 (iScience, 2022)
pKd: −log10 of the molar value. “Also recorded” adds a separate entry of the source. No end group written: not given here.

Assays:
RBD = details: bilayer interferometry; ref Wang et al., 2021a; cited from earlier work
[1] = target: recombinant SARS-CoV-2 spike receptor-binding domain (rRBD); experiment: Surface plasmon resonance; details: read-out: KD (abstract, rounded)
[2] = system: VSVG-pseudotyped virus infection of ACE2-expressing HEK 293T cells; assay type: cell-based
His-tagged rRBD = assay type: binding, SARS-CoV-2
[3] = ref Koeninger et al., 2020; cited from earlier work
RBD:ACE2 binding = assay type: cell-based, SARS-CoV-2 RBD; human ACE2
[4] = system: various viruses, including coronaviruses; details: ref Kim et al., 2018; cited from earlier work
[5] = cationic, 41 amino acids; ref Sawai et al., 2001; cited from earlier work
[6] = system: CoV-2 spike-pseudotyped virus infection of ACE2-expressing HEK 293T cells; assay type: cell-based, SARS-CoV-2 (spike pseudotyped lentivirus); human cells

| Substance | binding interaction with RBD (in words) (RBD) | pKd [1] | inhibition of VSVG-pseudotyped virus infection (in words) [2] | co-precipitation with His-RBD (in words) (His-tagged rRBD) | concentration at which hemolytic activity begins [3] [µM] | ratio of hemolytic concentration to IC50 (Hemolytic activity) [times] | effect on RBD:ACE2 binding (in words) (RBD:ACE2 binding) | antiviral effect (in words) [4] | charge [5] | effect on CoV-2 spike-mediated infection (in words) [6] |
| --- | --- | --- | --- | --- | --- | --- | --- | --- | --- | --- |
| LL-37 | strong binding interaction | – | – | – | – | – | – | – | – | – |
| GIGDPVTCLKSGAICHPVFCPRRYKQIGTCGLPGTKCCKKP (disulfide (positions not given here)) [hBD-2, Human beta defensin 2] | – | ~5.70 | not VSVG-mediated infection; also recorded: no inhibition | significant binding of hBD-2 to His-RBD | 70 | 25 | preventing it from binding to ACE2-expressing cells; also recorded: competitively decreased RBD-ACE2 binding; also recorded: reduced RBD:ACE2 binding; also recorded: blocks spike-RBD:ACE2 binding | interrupt viral infection of various viruses, including coronaviruses | +6 | dose-dependently decreased entry of CoV-2 spike-mediated infection; also recorded: inhibited viral entry into ACE2-expressing HEK 293T cells in a dose-dependent manner |
